This passage reports Ki results from US7179807B2, “5-substituted-2-arylpyrazines” (Neurogen Corporation, priority 2002, dated 2007).

For this test, the target named is T1, CRF1 receptor (Homo sapiens, UniProt P34998).
T1 construct: To induce CRF1 receptor expression, the cells are grown to approximately 80% confluence; endogenous in cells; host or cells: IMR-32 human neuroblastoma cells, BrdU-induced, as membrane homogenates
T1 sequence (P34998 24-415): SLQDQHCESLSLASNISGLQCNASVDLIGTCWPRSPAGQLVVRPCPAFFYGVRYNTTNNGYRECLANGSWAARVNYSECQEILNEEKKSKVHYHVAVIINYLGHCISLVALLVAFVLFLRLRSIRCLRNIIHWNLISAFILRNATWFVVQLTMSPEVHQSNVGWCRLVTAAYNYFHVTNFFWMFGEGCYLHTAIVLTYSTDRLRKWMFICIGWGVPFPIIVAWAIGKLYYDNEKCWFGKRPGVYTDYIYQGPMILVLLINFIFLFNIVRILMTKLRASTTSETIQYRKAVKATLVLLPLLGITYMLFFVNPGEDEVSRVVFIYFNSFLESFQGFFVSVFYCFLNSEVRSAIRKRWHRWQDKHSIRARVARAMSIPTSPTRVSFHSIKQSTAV
The test can be described thus: standard in vitro CRF receptor binding assay (125I-CRF, IMR-32 cell membranes). As to conditions: Table I; asterisk = tested in the Example 30 assay, membranes of BrdU-induced IMR-32 cells, 125I-CRF 100 pM; read-out: Ki < 1 μM. The procedure:
As discussed above, the following assay is defined herein as a standard in vitro CRF receptor binding assay. The pharmaceutical utility of compounds of this invention is indicated by the following assay for CRF1 receptor activity.
The CRF receptor binding is performed using a modified version of the assay described by Grigoriadis and De Souza (Methods in Neurosciences, Vol. 5, 1991). IMR-32 human neuroblastoma cells, a cell line that can be induced to express the CRF1 receptor, are cultured in growth medium consisting of EMEM w/Earle's BSS (JRH Biosciences, Cat# 51411) supplemented with 10% Fetal Bovine Serum, 25 mM HEPES (pH 7.2), 1 mM Sodium Pyruvate, and Non-Essential Amino Acids (JRH Biosciences, Cat# 58572). Stock cultures of cells are grown to confluence and subcultured twice per week at split ratios of 1:2 to 1:4 (cells are dislodged during subculturing using No-Zyme, JRH Biosciences, Cat# 59226). To induce CRF1 receptor expression, the cells are grown to approximately 80% confluence and then changed to growth media containing 2.5 μM 5-bromo-2′deoxyuridine (BrdU, Sigma, Cat# B9285). Growth media containing BrdU is replaced every 3–4 days and the cells are harvested via centrifugation (using No-Zyme) after 10 days of BrdU treatment. Harvested cells are stored frozen at −80° C. until needed for the preparation of membrane homogenates.
To prepare receptor-containing membranes cells are homogenized in wash buffer (50 mM Tris HCl, 10 mM MgCl2, 2 mM EGTA, pH 7.4) and centrifuged at 48,000×g for 10 minutes at 4° C. The pellet is re-suspended in wash buffer and the homogenization and centrifugation steps are performed once more.
Membrane pellets (containing CRF receptors) are resuspended and brought to a final concentration of 1.0 mg membrane protein/ml in binding buffer (Tris buffer above with 0.1% BSA and 0.1 mM bacitracin). For the binding assay, 150 microliters of the membrane preparation is added to 96 well microtube plates containing 50 microliters of ^125I-CRF (SA 2200 Ci/mmol, final concentration of 100 pM) and 2 microliters of test compound. Binding is carried out at room temperature for 2 hours. Plates are then harvested using 50 mM Tris buffer pH 7.4, on a BRANDEL 96 well cell harvester and filters (soaked in 1% PEI for 1.5 hours) are counted for gamma emissions on a Wallac 1205 BETAPLATE liquid scintillation counter. Non-specific binding is defined by 2 micromolar cold CRF. Ki values are calculated with the non-linear curve fitting program RS/1 (BBN Software Products Corp., Cambridge, Mass.).

Broadly, the Ki is a dissociation constant, usually derived from enzyme kinetics or from competition with a known ligand. In the case of `CCc1cc(-c2nc(NC)c(OC(CC)CC)nc2CC)c(C)nc1OC` [Compound 4, [5-Ethyl-6-(5-ethyl-6-methoxy-2-methyl-pyridin-3-yl)-3-(1-ethyl-propoxy)-pyrazin-2-yl]-methyl-amine], the Ki was less than 1000 nM.

With “[5-Ethyl-6-(2-ethyl-6-isopropoxy-2-pyridin-3-yl)-3-(1-ethyl-propoxy)-pyrazin-2-yl]-methyl-amine [Compound 6]”, the Ki is less than 1000 nM.

Turning to `CCc1nc(OC(CC)CC)c(NC)nc1-c1ccc(C(C)C)nc1C` [Compound 8, [5-Ethyl-6-(2-methyl-6-isopropyl-2-pyridin-3-yl)-3-(1-ethyl-propoxy)-pyrazin-2-yl]-methyl-amine], the Ki is less than 1000 nM.

`CCc1cc(-c2nc(NC)c(OC(CC)CC)nc2C)c(C)nc1OC` [Compound 3, [5-Methyl-6-(5-ethyl-6-methoxy-2-methyl-pyridin-3-yl)-3-(1-ethyl-propoxy)-pyrazin-2-yl]-methyl-amine]: the Ki is less than 1000 nM.

With “[5-Ethyl-6-(2-ethoxy-6-isopropoxy-2-pyridin-3-yl)-3-(1-ethyl-propoxy)-pyrazin-2-yl]-methyl-amine [Compound 7]”, the inhibition constant Ki was less than 1000 nM.

In the case of `CCc1nc(OC(CC)CC)c(NC)nc1-c1ccc(C(C)C)nc1N1CCC1` [Compound 13, [6-(2-Azetidin-1-yl-6-isopropyl-pyridin-3-yl)-5-ethyl-3-(1-ethyl-propoxy)-pyrazin-2-yl]-methyl-amine], the Ki was less than 1000 nM.

Take `CCc1nc(OC(CC)CC)c(NC)nc1-c1ccc(C(C)C)nc1O` [Compound 9, [5-Ethyl-6-(2-hydroxy-6-isopropyl-2-pyridin-3-yl)-3-(1-ethyl-propoxy)-pyrazin-2-yl]-methyl-amine]: the Ki is less than 1000 nM.

With `CCc1cc(-c2nc(OC)c(NC(CC)CC)nc2C)c(C)nc1OC` [Compound 1, [5-(5-Ethyl-6-methoxy-2-methyl-pyridin-3-yl)-3-methoxy-6-methyl-pyrazin-2-yl]-(1-ethyl-propyl)-amine], the Ki was less than 1000 nM.

With `CCC(CC)Nc1nc(C)c(-c2nc(OC)c(NC(CC)CC)nc2C)nc1OC` [Compound 2, N-5,N-5′-Bis-(1-ethyl-propyl)-6,6′-dimethoxy-3,3′-dimethyl-[2,2′]bipyrazinyl-5,5′-diamine], the Ki is less than 1000 nM.

`CCc1nc(OC(CC)CC)c(NC)nc1-c1ccc(C(C)C)nc1N(C)C` [Compound 11, [5-Ethyl-6-(2-dimethylamino-6-isopropyl-2-pyridin-3-yl)-3-(1-ethyl-propoxy)-pyrazin-2-yl]-methyl-amine]: the Ki is less than 1000 nM.

As for `CCC(CC)Oc1nc(Br)c(-c2cc(Br)c(NC(C)C)nc2C)nc1NC` [Compound 15, [3-(1-Ethyl-propoxy)-6-(6-isopropyl-amino-2-methyl-5-bromo-pyridin-3-yl)-5-bromo-pyrazin-2-yl]-methyl-amine], the inhibition constant Ki was less than 1000 nM.

Consider `CCc1cc(-c2nc(NC)c(OC(CC)CC)nc2CC)c(C)nc1N(C)C` [Compound 16, [6-(6-Dimethylamino-5-ethyl-2-methyl-pyridin-3-yl)-5-ethyl-3-(1-ethyl-propoxy)-pyrazin-2-yl]-methyl-amine], for which the inhibition constant Ki is less than 1000 nM.

For the compound `CCC(CC)Oc1nc(C)c(-c2cc(C)c(NC(C)C)nc2C)nc1NC` [Compound 17, [3-(1-Ethyl-propoxy)-6-(6-isopropyl-amino-2,5-dimethyl-pyridin-3-yl)-5-methyl-pyrazin-2-yl]-methyl-amine], the Ki was less than 1000 nM.

Take `CCc1nc(OC(CC)CC)c(NC)nc1-c1ccc(C(C)C)nc1N(CC)CC` [Compound 14, [6-(2-Diethylamino-6-isopropyl-pyridin-3-yl)-5-ethyl-3-(1-ethyl-propoxy)-pyrazin-2-yl]-methyl-amine]: the inhibition constant Ki is less than 1000 nM.

In the case of `CCc1nc(OC(CC)CC)c(NC)nc1-c1c(C)noc1C` [Compound 5, [6-(3,5-Dimethyl-isoxazol-4-yl)-5-ethyl-3-(1-ethyl-propoxy)-pyrazin-2-yl]-methyl-amine], the Ki was less than 1000 nM.

As for `CCc1nc(OC(CC)CC)c(NC)nc1-c1ccc(N(C)C)nc1C` [Compound 10, [5-Ethyl-6-(2-methyl-6-dimethylamino-2-pyridin-3-yl)-3-(1-ethyl-propoxy)-pyrazin-2-yl]-methyl-amine], the Ki was less than 1000 nM.
